Measured values reported in a melting point compilation (Tetko et al.; mined from patent text by program, amines drawn as free bases though some values may be those of a salt).

| melting point | SMILES |
| --- | --- |
| 222 to 223 °C | NC(CC(=O)O)c1ccc2c(c1)OCCO2 (stereo not drawn) |
| 156 to 157 °C | O=Cc1cccc2nnc(-c3ccccc3)cc12 |
| 58 to 61 °C | CCc1ncnc(NC(CC)c2ccc(Oc3c(F)c(F)c(C(F)(F)F)c(F)c3F)cc2)c1Cl (stereo not drawn) |
| 198 to 199 °C | COc1cc(/C(C#N)=C/c2ccc(Cl)c([N+](=O)[O-])c2)cc(OC)c1OC |
| 55 to 56 °C | CCOC(=O)c1oc2cc(Br)ccc2c1C |
| 109 to 110 °C | Cc1ccc(-c2nc(COc3ccc(CCCn4ccnc4)cc3)co2)o1 |
| > 300 °C | Brc1ccc2c3nc4ccccc4[nH]c-3nc2c1 |
| 93 to 94 °C | COC(=O)c1ccc2scc(Br)c2c1 |
| 104 to 105 °C | N#Cc1ccc(-c2ccc(-c3ccco3)o2)cc1 |
| 242 to 244 °C | N#CCc1cc(O)cc2cc(-c3ccc(O)c(F)c3)oc12 |
| 138 to 140 °C | CC(C)C(=O)c1ccc2c(c1)CC(N1C(=O)c3ccccc3C1=O)C2 (stereo not drawn) |
| 97 to 99 °C | CCCC(=O)c1cnn(C)c1S(N)(=O)=O |
| 121 to 123 °C | COC(=O)C(CCSC)NC(=O)c1ccc(NC(=O)C2CC(O)CN2C(=O)OC(C)(C)C)cc1-c1ccccc1 (stereo not drawn) |
| 147 to 148 °C | O=C(c1cccc(CBr)c1)c1cccc(CBr)c1 |
| 31 to 33 °C | Cc1ccc(C(F)(F)F)cc1[N+](=O)[O-] |
| 199 to 200 °C | COC(=O)CCCOc1ccc2c(c1OC)N=C(C=C(O)c1cccnc1)N1CCN=C21 |
| 70 to 72 °C | FC(F)(F)c1cc(Cl)c(-n2nccc2Cl)c(Cl)c1 |
| 159 to 160 °C | Nc1ncc2c(n1)-c1ccccc1C(c1ccc(Cl)c(Cl)c1)C2 (stereo not drawn) |
| 44 to 45 °C | Cc1oncc1C(=O)N1CCC(C)CC1 |
| 180 to 181 °C | CC1(c2ccccc2)C(=O)Nc2ccc(Cl)cc21 (stereo not drawn) |
| 149 to 150 °C | COc1ccc2nc(SCc3nccc(OCC(F)(F)F)c3OC)[nH]c2c1 |
| 157 to 158 °C | CN1C(=O)OC(C)(C)c2cc(-c3cc(F)cc(Br)c3)ccc21 |
| 186 to 187 °C | COC(=O)c1ccc(Cn2nc(-c3ccc(OC)cc3)c(-c3ccc(OC)cc3)cc2=O)cc1 |
| 148 to 149 °C | CCc1ccc(C(=O)COc2ccc(CC3SC(=O)NC3=O)cc2)nc1 (stereo not drawn) |
| 197 to 198 °C | CCP(=O)(CC)Cc1ccc(NC(=O)/C=C/c2cccc(-c3ccc(C)cc3)c2)cc1 |

| melting point | SMILES |
| --- | --- |
| 156 to 157 °C | COc1cc(-n2nc(C(F)(F)F)cc2-c2ccc(S(C)(=O)=O)cc2)ccc1Br |
| 126 to 128 °C | O=C(CCCCN1CCCCC1)NNC(=O)N1Cc2ccccc2Oc2ccc(Cl)cc21 |
| 126 to 127 °C | CC1(C)CC(C)(C)CC(O)(C#Cc2ccccn2)C1 |
| 225 to 227 °C | CC1(C)CCOc2c(C(O)C#Cc3ccc(C(=O)O)c(O)c3)cccc21 (stereo not drawn) |
| 165 to 173 °C | COC(=O)c1sccc1S(=O)(=O)NC(=O)Nc1nc(C)cc(OC)n1 |
| 192 °C | CN(C(=O)OCc1ccccc1)c1ccc([N+](=O)[O-])cc1O |
| 128 to 129 °C | CC(=O)Oc1c(-c2ccccc2)sc2nc(C(C)(C)C)ccc12 |
| 137 to 139 °C | CCOc1cc(C(CC(=O)CC)N2C(=O)c3cccc(NC(C)=O)c3C2=O)ccc1OC (stereo not drawn) |
| 257 to 258 °C | CC1CCC(=NNc2ccc([N+](=O)[O-])cc2[N+](=O)[O-])c2ncc(C(=O)O)c(=O)n21 (stereo not drawn) |
| 199 °C | CCC(C)Nc1c(-c2c(F)cc(F)cc2F)c(F)nc2ncncc12 (stereo not drawn) |
| 111 to 115 °C | COC(=O)CSC(c1ccccc1)(c1ccccc1)c1ccccc1 |
| 113 to 114 °C | CCOCC(=O)Nc1nc2ccccc2s1 |
| 135 to 136 °C | CCC1(C)OC(=O)C(c2ccccc2)C(=O)O1 (stereo not drawn) |
| 83 to 85 °C | Nc1ncnc2c1c(-c1ccc(Oc3cccc(CN4CCOCC4)c3)cc1)cn2C1CCOC1 (stereo not drawn) |
| 130 to 132 °C | O=C1C(=O)c2ccccc2C2=C1SCC1(CCN(CCCOc3ccc(Cl)cc3)CC1)O2 |
| 226 to 231 °C | COC(=O)Cn1c(C(=O)NC(N)=S)cc2cc(C)cc(C)c21 |
| 179 to 180 °C | O=S(=O)(c1ccc(Br)cc1)N1CCN(CC2CCN(c3ccncc3)CC2)CC1 |
| 128 to 130 °C | CCCCCCCCCCCCCCOc1ccc(C(N)=O)cc1 |
| 252 to 253 °C | CCCOc1ncc(NC(C)=O)cc1-c1nc2c(CCC)nn(C)c2c(=O)[nH]1 |
| 202 to 205 °C | CC(=O)N1c2ccc(O)cc2Sc2cc([N+](=O)[O-])ccc21 |
| 225 to 226 °C | CN1CCN(c2ccc(-c3cnc4[nH]cc(C(=O)C5(C)CCCCC5)c4n3)cc2)CC1 |
| 265 °C | Nc1c(F)c(N2CCC(n3cc(-c4ccccc4)nn3)C2)c(F)c2c1c(=O)c(C(=O)O)cn2C1CC1 (stereo not drawn) |
| 193 to 196 °C | CC(=O)Nc1cc(C=CN(C)C)c([N+](=O)[O-])cn1 |
| 75 to 76 °C | C=CCC(O)(Cn1cncn1)C1(Cl)CC1 (stereo not drawn) |
| 144 °C | Cc1c(C=C(C#N)C#N)cc(C(C)(C)C)c(O)c1Br |

| melting point | SMILES |
| --- | --- |
| 233 to 235 °C | CSc1sc(-c2nnn(C)n2)c2c1C(=O)CC(C)(C)C2 |
| 162 °C | CCCC1=C(C(=O)OCC)C(c2cc(Cl)ccc2Cl)c2c[nH]nc2N1 (stereo not drawn) |
| 240 °C | Cc1cc(C)c(S(=O)(=O)OC[C@@H]2C[C@@H]2COS(=O)(=O)c2c(C)cc(C)cc2C)c(C)c1 |
| 145 to 147 °C | CN(N)c1ccc(-c2ccccc2)nn1 |
| 165 to 167 °C | CCOC(=O)C(=O)c1cc(OC)c(O)c([N+](=O)[O-])c1 |
| 38 to 39 °C | COc1cc(C)ccc1OCc1ccccc1 |
| 139 to 140 °C | O=C(Nc1ccccn1)C(CC1CCCC1)c1ccc(-c2cccnc2)cc1 (stereo not drawn) |
| 81 to 83 °C | O=C1CCC(C2CO2)N1Cc1ccccc1Cl (stereo not drawn) |
| 215 to 218 °C | CC1c2ccccc2Cn2cc3c(c21)C(=O)c1ccccc1C3=O (stereo not drawn) |
| 127 to 130 °C | COc1cccc(CNC(=O)c2nc3cccc(OCCN4CCC(C(=O)O)CC4)c3c(=O)[nH]2)c1 |
| 170 to 172 °C | CCC(C)(C)Cc1ccc(C(=O)O)c(=O)[nH]1 |
| 112 to 114 °C | CCOC(=O)c1ccc2c(c1)CCC(=Cc1cccnc1)C2=O |
| 262 to 271 °C | COc1cccc2c1CN(c1c(F)cc3c(=O)c(C(=O)O)cn(-c4ccc(F)cc4F)c3c1F)C2 |
| 78 to 80 °C | Cc1c(C(N)=O)sc2cncc(Oc3ccc(Br)cc3)c12 |
| 119 to 121 °C | O=C(NC1CCCCC1)Oc1ccccc1-c1ccccc1 |
| 136 to 137 °C | C=C(C)[C@@H]1CC(=O)[C@H](C)[C@H]1c1nc2c([nH]1)c(=O)n(CCC)c(=O)n2CCC |
| 192 to 193 °C | NC1=NS(=O)N=C1NCCCN(Cc1ccccn1)c1ccccn1 (stereo not drawn) |
| 257 to 259 °C | Cn1cnc(COc2nn3c(-c4ccccc4)nnc3cc2-c2ccco2)n1 |
| > 300 °C | CC(=NNc1ccc(C2=NNC(=O)CC2)cc1)c1cscn1 |
| 48 to 50 °C | CC(C)(C)C(=O)N1CCSC1=S |
| 192 to 194 °C | CCNC(=O)c1cccc2[nH]n(C)c(=O)c12 |
| 102 to 104 °C | COC(=O)c1cc(Oc2ccc(F)cc2F)ncc1N |
| 143 to 145 °C | CNc1cc(Br)cc(S(=O)(=O)c2ccccc2)c1 |
| 190 °C | COc1cc(OC)nc(NC(=O)NS(=O)(=O)Nc2c(C)csc2C)n1 |
| 161 to 170 °C | CN(C)CC(C)(C)CNc1ncc2cc(-c3c(Cl)cccc3Cl)c(NC(=O)NC(C)(C)C)nc2n1 |

| melting point | SMILES |
| --- | --- |
| > 300 °C | Cn1c(=O)c2cnc(O)n2c2ccccc21 |
| 118 to 119 °C | CCCC(=O)ON=C(c1ccccc1)c1cc(C(C)(C)C)c(O)c(C(C)(C)C)c1 |
| 205 to 207 °C | N#Cc1cc(-c2ccncc2)sc1-c1ccncc1 |
| 87 to 89 °C | CCCCC(NC(=O)C(CC(C)C)NC(=O)COc1ccc2ccccc2c1)C(=O)CSCc1ccco1 (stereo not drawn) |
| 135 to 158 °C | CCOC(=O)c1c(Nc2ccccc2SC)n[nH]c1C |
| 167 to 169 °C | Nn1c(=O)c2cc(F)c(S(=O)(O)=S)nc2n(C2CC2)c1=O |
| 72 to 73 °C | CCCCCCCCCCCCCC1CC(=O)NCCCNCCCCN1 (stereo not drawn) |
| 314 to 317 °C | O=c1[nH]c2cc(Cl)cc(Cl)c2c(=O)n1Cc1cccc([N+](=O)[O-])c1 |
| 166 to 168 °C | O=C(Nc1nc(O)cc(-c2ccccc2)n1)C(F)(F)F |
| 250 to 253 °C | COc1cc2c3c(cccc3c1Br)C(=O)N(O)C2=O |
| 299 to 302 °C | COc1ccc2[nH]c3c(c2c1)C[C@@]1(C)C(=O)N(CCBr)C(=O)N1[C@@H]3c1cccc(O)c1 (racemic) |
| 224 to 225 °C | CC(C(N)=O)c1ccc2c(c1)C(=O)Cc1cc(F)ccc1S2 (stereo not drawn) |
| 172 to 173 °C | O=C(CCc1ccccc1)Cn1ccnc1 |
| 108 to 111 °C | O[C@@H](CNCCOc1ccc2oc(-c3noc(C(F)(F)F)n3)cc2c1)c1cccc(Cl)c1 |
| 166 to 168 °C | COC(=O)/C(=C/C=C/c1cc2cc(Cl)ccc2[nH]1)OC |
| 82 to 83 °C | CCCCCCCCCCc1ccc(C(=O)NOCc2ccccc2)cc1 |
| 210 to 211 °C | COc1ccc(-c2ccc3c(c2)C(C)(C)OC(=O)N3)cc1F |
| 79 to 81 °C | S=C(Cl)c1cc(C(Cl)(Cl)Cl)c(Cl)cc1Cl |
| 266 to 268 °C | COc1c(O)c(OC)c2c(=O)cc(-c3ccc(O)cc3)oc2c1OC |
| 236 to 244 °C | Cc1c(C(=O)O)ccc2c1C(Cl)C(Cl)CS2(=O)=O (stereo not drawn) |
| 57 to 59 °C | CCOC1CC2(C)C(CCC3C4CCC(CC)C4(C)CC(N(C)C)C32)CC1O (stereo not drawn) |
| 174 to 177 °C | Cc1ccc(S(=O)(=O)N2CCNC2=Nc2ccccc2)cc1 |

| SMILES | melting point |
| --- | --- |
| O=[N+]([O-])N=C(NCc1cnc(Cl)s1)NCc1cnc(Cl)s1 | 217 to 218 °C |
| O=C1/C(=C/c2ccccc2)N2CCC1CC2 | 130 to 132 °C |
| Cc1nnc2n1-c1ccc(C#CCn3c(C)nc4ccccc4c3=O)cc1C(c1ccccc1F)=NC2 | 241 to 244 °C |
| CCc1cc2c(s1)-n1nc(C(N)=O)nc1C(OC(C)=O)N=C2c1ccccc1Cl (stereo not drawn) | 168 to 170 °C |
| CC12C=CC(=O)CC1CCC1C2CCC2(C)C1CCC2(C)O (stereo not drawn) | 140 to 142 °C |
| CN1C[C@H](CN2CCN(C(c3ccccc3)c3ccccc3)CC2)C=C2c3cccc4[nH]c(Cl)c(c34)C[C@H]21 | 208 °C |
